Source: patent US11685739B2, “High penetration drugs and their compositions thereof for treatment of Parkinson diseases” (TECHFIELDS PHARMA CO., LTD, priority 2013, dated 2023)
Like-named read-outs stand apart in the source and are kept apart here.

Columns and labels:
[1] = system: motor function deficits induced by 6-OHDA in Parkinson's disease (PD) model; test: Rotarod test in rats with 6-OHDA lesion, Parkinson's disease (PD) model; format: in vivo, Sprague-Dawley rats; conditions: for Side effects (dyskinesia at peak dose, end-of-dose deterioration of function etc.): L-DOPA orally
[2] = system: motor function deficits induced by 6-OHDA in Parkinson's disease (PD) model; test: as above; format: in vivo, Sprague-Dawley rats; conditions: Example 31; L-DOPA orally, pro-drug transdermally
Protocol: Test subjects (Sprague-Dawley rats) were prepared, grouped, and tested following the protocol below: • 1. 200 Sprague-Dawley rats (male, 200-230 g) underwent brain stereotaxic surgery after 1 week acclamation in animal facility; • 2. After anesthesia, a bur hole (1 mm in diameter) was made on skull on the left side with a motor drill based on the coordinates: AP +0.5 mm, ML −2.8 mm, DV 6.0 mm relative to Bregma; • 3. 6-OHDA (20 μg at 5 mg/mL) or sterile saline was injected into the left striatum with a microsyringe fitted with a 26-gauge steel cannula. The chemical caused the retrograde neurodegeneration in the distal substantia nigra and impairs dopamine transmission in the nigro-striatal pathway, which eventually led to functional disturbance of motor activities; • 4. Apomorphine and classic rotation test was carried out to screen animals at the end of week 3 post 6-OHDA treatment. Animals that matched lesion type and apomorphine-induced rotational scores were allotted to 11 groups; and • 5. Rats were divided into 11 groups (n=12), each group was applied with the drug(s) at the doses specified in Table 2:
• 6. Dose Formulations • (1) L-DOPA in water (3 mg/mL) was the positive control solution for group 1 (orally for group 1, transdermally for groups 2-11). The volume of administration was 2 mL/kg. Vehicle solution (negative control solution for group 2) was 30% ethanol (v/v). The volume of administration was 1286 μL/kg. Other test solutions (groups 3-11) were freshly prepared every day. • (2) Preparation method of test solutions for groups 3-5: 50.33 mg of Drug A was dissolved in 10 mL of 30% ethanol(v/v). This solution was the stock solution[(2)a]. • a. The test solution for group 5 (high dose group) of Drug A: The stock solution [(2)a] was the test solution for Group 5. The volume of administration was 1286 μL/kg. • b. The test solution for group 4 (moderate dose group) of Drug A: 3.00 mL of the stock solution [(2)a] was diluted to final volume 9.00 mL with 30% ethanol(v/v). This solution was the test solution for Group 4. The volume of administration was 1286 μL/kg. • c. […]

[3] = human, pH 7.4

## NC(Cc1ccc(O)c(O)c1)C(=O)O (stereo not drawn) [Compound-31, 2-amino-3-(3,4-dihydroxyphenyl)propanoic acid]
[1]; Example 31, 6 mg/kg orally (Group 1), three-week treatment
  Efficacy in Rotarod test comparing to Vehicle group: did not exhibit efficacy
[1]; Example 33, 6 mg/kg orally, four-week treatment
  Efficacy in Rotarod test comparing to the negative control group: did not exhibit efficacy
[1]; Example 33, pro-drug transdermally
  Side effects (dyskinesia at peak dose, end-of-dose deterioration of function etc.): caused nausea, vomiting, gastrointestinal bleeding, dyskinesia at peak dose, and end-of-dose deterioration of function
[1]; Example 35, 6 mg/kg orally, four-week treatment
  Efficacy in Rotarod test comparing to Vehicle group: did not exhibit efficacy
[1]; Example 35, pro-drug of dopamine transdermally
  Side effects (dyskinesia at peak dose, end-of-dose deterioration of function etc.): caused nausea, vomiting, gastrointestinal bleeding, dyskinesia at peak dose, and end-of-dose deterioration of function
[1]; Example 36, 6 mg/kg orally, four-week treatment
  Efficacy in Rotarod test comparing to Vehicle group: did not exhibit efficacy
[1]; Example 36, pro-drug transdermally
  Side effects (dyskinesia at peak dose, end-of-dose deterioration of function etc.): caused nausea, vomiting, gastrointestinal bleeding, dyskinesia at peak dose, and end-of-dose deterioration of function
[2]
  Side effects (dyskinesia at peak dose, end-of-dose deterioration of function etc.): caused nausea, vomiting, gastrointestinal bleeding, dyskinesia at peak dose, and end-of-dose deterioration of function
[3]; 1 h
  The cumulative amount of test compounds: 0.001 mg
[3]; 2 h
  The cumulative amount of test compounds: 0.001 mg
[3]; 4 h
  The cumulative amount of test compounds: 0.002 mg
[3]; 8 h
  The cumulative amount of test compounds: 0.003 mg
